Assay results taken from ChEMBL document CHEMBL1828616, “Novel terpene based 1,4,2-dioxazoles: synthesis, characterization, molecular properties and screening against Entamoeba histolytica” (Eur J Med Chem, 2011).

What was measured:
Entamoeba histolytica = experiment: Antiamoebic activity against Entamoeba histolytica HM-1:IMSS by microdilution method; assay type: functional, organism-based
[1] = Octanol-water partition coefficient, log P of the compound; assay type: physicochemical
[2] = Cytotoxicity against rat H9c2 cells assessed as cell viability at 3.13 to 25 uM after 48 hrs by MTT assay; assay type: cell-based; conditions: read-out: Activity
H9c2 [3] = experiment: Cytotoxicity against rat H9c2 cells assessed as cell viability at 50 uM after 48 hrs by MTT assay; assay type: cell-based; conditions: h9c2, 48 h
H9c2 [4] = experiment: Cytotoxicity against rat H9c2 cells assessed as cell viability at 100 uM after 48 hrs by MTT assay; assay type: cell-based; conditions: h9c2, 48 h
[5] = (§1) Cytotoxicity against rat H9c2 cells assessed as cell viability at 200 uM after 48 hrs by MTT assay; assay type: cell-based; conditions: H9c2 cells, read-out: Activity
H9c2 [6] = experiment: Cytotoxicity against rat H9c2 cells assessed as cell viability after 48 hrs by MTT assay; assay type: cell-based; conditions: H9c2, 48 h
[7] = Selectivity index, ratio of IC50 for rat H9c2 cells to IC50 for Entamoeba histolytica HM-1:IMSS
H9c2 [8] = experiment: as §1; assay type: cell-based; conditions: h9c2, 48 h, 200 µM
in vitro = conditions: rat, H9c2 cells
Description: Cytotoxicity against rat H9c2 cells assessed as cell viability at 3.13 uM after 48 hrs by MTT assay

| IC50 (Entamoeba histolytica) [µM] | logP [1] | SMILES | viability at 48 h [2] [%] | Activity (H9c2 [3]) | Activity (H9c2 [4]) | viability at 48 h, 200 µM [5] [%] | IC50 (H9c2 [6]) [µM] | Ratio IC50 [7] | Activity (H9c2 [8]) | viability at 48 h, 3.13 µM (in vitro) [%] |
| --- | --- | --- | --- | --- | --- | --- | --- | --- | --- | --- |
| 2.25 | 4.5 | CC(C)=CCC/C(C)=C/C1=NOC(C)(c2ccccn2)O1 (configuration not stated) | – | – | – | – | – | – | – | – |
| 2.98 | 3.96 | CC(C)=CCC/C(C)=C/C1=NOC(c2ccccn2)O1 (configuration not stated) | – | – | – | – | – | – | – | – |
| 2.02 | 5.15 | CC(C)=CCC/C(C)=C/C1=NOC(C)(c2ccco2)O1 (configuration not stated) | – | – | – | – | – | – | – | – |
| 2.42 | 4.61 | CC(C)=CCC/C(C)=C/C1=NOC(c2ccco2)O1 (configuration not stated) | – | – | – | – | – | – | – | – |
| 3.01 | 5.67 | CC(C)=CCC/C(C)=C/C1=NOC(C)(c2cccs2)O1 (configuration not stated) | – | – | – | – | – | – | – | – |
| 2.9 | 5.13 | CC(C)=CCC/C(C)=C/C1=NOC(c2cccs2)O1 (configuration not stated) | – | – | – | – | – | – | – | – |
| 1.48 | 5.31 | CC(C)=CCC/C(C)=C/C1=NOC(c2ccc3c(c2)OCO3)O1 (configuration not stated) | – | – | – | – | – | – | – | – |
| 1 | 2.34 | CC1(c2ccccn2)ON=C(c2ccc3c(c2)OCO3)O1 (configuration not stated) | ≥ 82 | Toxic | Toxic | 88 | > 200 | >200 | – | – |
| 1.03 | 1.8 | c1ccc(C2ON=C(c3ccc4c(c3)OCO4)O2)nc1 (configuration not stated) | ≥ 82 | Toxic | Toxic | – | 40 | 38.83 | Toxic | – |
| 1.1 | 2.99 | CC1(c2ccco2)ON=C(c2ccc3c(c2)OCO3)O1 (configuration not stated) | ≥ 82 | Toxic | Toxic | – | > 200 | >181.81 | Toxic | – |
| 1.09 | 2.45 | c1coc(C2ON=C(c3ccc4c(c3)OCO4)O2)c1 (configuration not stated) | ≥ 82 | Toxic | Toxic | – | > 200 | >183.48 | Toxic | – |
| 2.68 | 3.51 | CC1(c2cccs2)ON=C(c2ccc3c(c2)OCO3)O1 (configuration not stated) | – | – | – | – | – | – | – | – |
| 3.5 | 2.97 | c1csc(C2ON=C(c3ccc4c(c3)OCO4)O2)c1 (configuration not stated) | – | – | – | – | – | – | – | – |
| 1.39 | 5.44 | CC(C)=CCC/C(C)=C/C1ON=C(c2ccc3c(c2)OCO3)O1 (configuration not stated) | – | – | – | – | – | – | – | – |
| 2.22 | 4.08 | CC(C)=CCC/C(C)=C/C1ON=C(c2ccccn2)O1 (configuration not stated) | – | – | – | – | – | – | – | – |
| 1.06 | 1.8 | c1ccc(C2=NOC(c3ccc4c(c3)OCO4)O2)nc1 (configuration not stated) | ≥ 82 | Toxic | Toxic | – | 85 | >80.18 | Toxic | – |
| 2.78 | 5.25 | CC(C)=CCC/C(C)=C/C1ON=C(c2ccco2)O1 (configuration not stated) | – | – | – | – | – | – | – | – |
| 1.05 | 2.97 | c1coc(C2=NOC(c3ccc4c(c3)OCO4)O2)c1 (configuration not stated) | ≥ 82 | Toxic | Toxic | – | 200 | 190.47 | Toxic | – |
| 3.05 | 4.74 | CC(C)=CCC/C(C)=C/C1ON=C(c2cccs2)O1 (configuration not stated) | – | – | – | – | – | – | – | – |
| 2.45 | 2.45 | c1csc(C2=NOC(c3ccc4c(c3)OCO4)O2)c1 (configuration not stated) | – | – | – | – | – | – | – | – |
| – | – | Cc1ncc([N+](=O)[O-])n1CCO [METRONIDAZOLE] | – | Toxic | Toxic | – | > 200 | >137.9 | Toxic | 100 |
